US20260209260A1, “VECTORIZED NHC IRIDIUM(III) COMPLEXES AND USE THEREOF IN PHOTODYNAMIC THERAPY AND/OR DIAGNOSTIC” (CENTRE NATIONAL DE LA RECHERCHE SCIENTIFIQUE, priority 2022, published 2026)
Values joined by “and” are separate entries in the source; they are usually repeats but may differ in a detail not shown here. Equal values may be shown once. Read-outs that look alike come from different tables or passages of the source. Marks after values point to notes of the source that are not given here.

Key:
[1] = test system: MC3T3 osteoblast cells (non-tumor); assay: Cell viability assay (MTT), dark and blue light; format: cell-based, Murine; conditions: for Photosensitizing index (PI): MC3T3, dark vs blue light
Outline: (§1)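 Cells were either kept dark for the full 72 h with complex or given 10 min irradiation after 8 h dark pre-incubation, then held dark to 72 h. DMSO fixed at 0.1% (v/v); MTT formazan measured at 570 nm; ≥3 independent triplicate experiments.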

[2] = test system: NIH-3T3 fibroblast cells (non-tumor); assay: Cell viability assay (MTT), dark and blue light; format: cell-based, Murine; conditions: for Photosensitizing index (PI): NIH-3T3, dark vs blue light
Outline: as §1

[3] = Lipophilicity: octanol-water partition coefficient, shake-flask method
Outline: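 Octanol and water mutually pre-saturated for 24 h; compound ([…] stock in aqueous phase) partitioned against equal volume n-octanol, mixed 15 min, phases separated by centrifugation.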

[4] = UV/Vis absorption spectra; format: physicochemical; conditions: room temperature, air-saturated CH2Cl2 or CH2Cl2/MeOH (1:1), 50 μM; ε in brackets, sh = shoulder
Procedure: UV/Vis absorption spectra were recorded at RT on solutions contained in quartz cuvettes (optical pathlength 1 cm, Hellma®) with a PerkinElmer® UV/VIS/NIR spectrophotometer Lambda 950 and a PerkinElmer® detector UV/VIS/NIR Accessory 2D Detector Module.

[5] = Emission lifetime measurement; format: physicochemical
Outline: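 Emission lifetimes measured by time-correlated single-photon counting (0.5 ns time resolution), excitation from a D2 lamp and a 405 nm pulsed diode laser. Estimated error 5% on lifetime.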

[6] = Luminescence emission spectra and quantum yield; format: physicochemical; conditions: room temperature; reference POPOP in hexane or rhodamine B in ethanol
Outline: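 Spectrofluorometric fluorescence/phosphorescence emission spectra of the iridium(III) complexes recorded in CH2Cl2 at room temperature. Quantum yields by the Demas–Crosby relative method on solutions at RT, from integrated emission band areas versus a reference standard of known yield, corrected for solvent refractive index.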

[7] = 8 h in the dark, blue light 458 nm 10 min, then dark up to 72 h, read-out: GI50 MC3T3 Blue
[8] = MC3T3, blue light, read-out: GI50
[9] = 8 h in the dark, blue light 458 nm 10 min, then dark up to 72 h, read-out: GI50 NIH-3T3 Blue
[10] = NIH-3T3, blue light, read-out: GI50
[11] = in the dark, 72 h, read-out: GI50 NIH-3T3 Dark
[12] = n-octanol/water, shake-flask, mean of at least three determinations

Structure (SMILES): F[P-](F)(F)(F)(F)F.O=C(O)CC[C@H](NC(=O)N[C@@H](CCCCNC(=O)CCn1cc[n+]2[c]1[Ir-3]13([c]4c(sc5ccccc45)-c4cccc[n+]41)([c]1c(sc4ccccc14)-c1cccc[n+]13)[n+]1ccccc1-2)C(=O)O)C(=O)O [III-j]
- GI50 [1, 7]: 12.5 µM
- GI50 [1, 8]: 12.5 µM
- Photosensitizing index (PI) [1]: >20
- GI50 ([1]; MC3T3, dark, read-out: GI50): > 250 µM
- GI50 [2, 9]: 10.8 µM
- GI50 [2, 10]: 10.8 µM
- Photosensitizing index (PI) [2]: >9.3
- GI50 ([2]; NIH-3T3, dark, read-out: GI50): > 100 µM
- GI50 [2, 11]: > 100 µM
- Log P [3]: −0.38 ± 0.03
- λmax (nm) ε (M^−1 · cm^−1) [4]: 324 (26900), 343 (sh)^b (24560), 428 (10800) nm (M^−1 · cm^−1)
- τ1 emission lifetime [5]: 197 ns
- ΦP emission phosphorescence quantum yield [6]: 3.0%

Structure (SMILES): F[P-](F)(F)(F)(F)F.O=C(O)CC[C@H](NC(=O)N[C@@H](CCCCNC(=O)CCn1cc[n+]2[c]1[Ir-3]13([c]4ccccc4-c4sc5ccccc5[n+]41)([c]1ccccc1-c1sc4ccccc4[n+]13)[n+]1ccccc1-2)C(=O)O)C(=O)O [III-k]
- GI50 [1, 7]: 33.8 µM
- GI50 [1, 8]: 33.8 µM
- Photosensitizing index (PI) [1]: 2.8
- GI50 ([1]; MC3T3, dark, read-out: GI50): 95.1 µM
- GI50 ([1]; in the dark, 72 h, read-out: GI50 MC3T3 Dark): 95.1 µM
- GI50 [2, 9]: 30 µM
- GI50 [2, 10]: 30 µM
- Photosensitizing index (PI) [2]: >3.3
- GI50 ([2]; NIH-3T3, dark, read-out: GI50): > 100 µM
- GI50 [2, 11]: > 100 µM
- Log P [3]: −0.14 ± 0.01
- λmax (nm) ε (M^−1 · cm^−1) [4]: 321 (39070), 370 (sh) (12560), 406 (10170) nm (M^−1 · cm^−1)
- τ1 emission lifetime [5]: 649 ns
- ΦP emission phosphorescence quantum yield [6]: 6.1%

Structure (SMILES): F[P-](F)(F)(F)(F)F.O=C(NCCCn1cc[n+]2[c]1[Ir-3]13([c]4ccccc4-c4c5ccccc5cc[n+]41)([c]1ccccc1-c1c4ccccc4cc[n+]13)[n+]1ccccc1-2)[c-]1cccc1.[Fe+2].c1cc[cH-]c1 [IV-h]
- Photosensitizing index (PI) [1]: 3.8
- GI50 ([1]; MC3T3, dark, read-out: GI50): 17.1 µM
- GI50 [2, 10]: 4.4 µM
- Photosensitizing index (PI) [2]: 3.0
- Log P [3]: 0.81 ± 0.07
- λmax (nm) ε (M^−1 · cm^−1) [4]: 334 (sh) (19440), 351 (sh) (18355), 380 (12745), 435 (7870) nm (M^−1 · cm^−1)
- τ1 emission lifetime [5]: 178 ns
- ΦP emission phosphorescence quantum yield [6]: 0.07%

Structure (SMILES): F[P-](F)(F)(F)(F)F.O=C(NCCCn1cc[n+]2[c]1[Ir-3]13([c]4cccc5ccc6ccc[n+]1c6c45)([c]1cccc4ccc5ccc[n+]3c5c14)[n+]1ccccc1-2)[c-]1cccc1.[Fe+2].c1cc[cH-]c1 [IV-i]
- GI50 [1, 8]: 10 µM
- Photosensitizing index (PI) [1]: 1.0
- GI50 ([1]; MC3T3, dark, read-out: GI50): 10 µM
- GI50 [2, 10]: 17.8 µM
- Photosensitizing index (PI) [2]: 2.3
- Log P [3, 12]: 0.74 ± 0.02
- λmax (nm) ε (M^−1 · cm^−1) [4]: 318 (25600), 413 (7410) nm (M^−1 · cm^−1)
- τ1 emission lifetime [5]: 205 ns
- ΦP emission phosphorescence quantum yield [6]: 0.02%

Structure (SMILES): F[P-](F)(F)(F)(F)F.O=C(NCCCn1cc[n+]2[c]1[Ir-3]13([c]4c(sc5ccccc45)-c4cccc[n+]41)([c]1c(sc4ccccc14)-c1cccc[n+]13)[n+]1ccccc1-2)[c-]1cccc1.[Fe+2].c1cc[cH-]c1 [IV-j]
- GI50 [1, 8]: 3.9 µM
- Photosensitizing index (PI) [1]: 4.2
- GI50 [2, 10]: 14 µM
- Photosensitizing index (PI) [2]: 4.5
- GI50 ([2]; NIH-3T3, dark, read-out: GI50): 62.8 µM
- Log P [3]: 1.07 ± 0.07
- λmax (nm) ε (M^−1 · cm^−1) [4]: 322 (15400), 342 (sh) (14040), 434 (6150) nm (M^−1 · cm^−1)
- τ1 emission lifetime [5]: 196 ns
- ΦP emission phosphorescence quantum yield [6]: 0.01%

Structure (SMILES): F[P-](F)(F)(F)(F)F.O=C(NCCCn1cc[n+]2[c]1[Ir-3]13([c]4ccccc4-c4sc5ccccc5[n+]41)([c]1ccccc1-c1sc4ccccc4[n+]13)[n+]1ccccc1-2)[c-]1cccc1.[Fe+2].c1cc[cH-]c1 [IV-k]
- GI50 [1, 8]: 5.1 µM
- Photosensitizing index (PI) [1]: 2.3
- GI50 ([1]; MC3T3, dark, read-out: GI50): 10.2 µM and 11.6 µM
- GI50 [2, 10]: 11.6 µM
- Photosensitizing index (PI) [2]: 1.6
- GI50 ([2]; NIH-3T3, dark, read-out: GI50): 18.7 µM
- Log P [3, 12]: 0.74 ± 0.05
- λmax (nm) ε (M^−1 · cm^−1) [4]: 321 (24910), 371 (sh) (7200), 407 (5940) nm (M^−1 · cm^−1)
- τ1 emission lifetime [5]: 212 ns
- ΦP emission phosphorescence quantum yield [6]: 0.08%
